From patent publication US4301140A, “Radiopharmaceutical method for monitoring kidneys” (G. D. Searle & Co., priority 1979, dated 1981)

How the values were obtained:
[1] = cited from earlier work
[2] = Plasma clearance after intravenous injection, dogs (gamma spectrometer); format: in vivo, dog (male mongrel and female beagle); conditions: i.v., four tests
Protocol: In each case about 0.5-2 milliliters of a solution of the complex having radioactivity of about 1-4 mCi and formed from 0.5-10 milligrams of complexing agent were administered. […] The dogs ranged in weight from 6 to 15 kilograms. Periodically blood samples were removed from the jugular vein of the dogs and collected in vacuum tubes containing the disodium salt of ethylenediamine tetracetic acid and the radioactivity of one milliliter samples of plasma were measured in a gamma spectrometer.
The gamma spectrometer employed was a Model 1185 Gamma Scintillation Spectrometer (Searle Analytic Inc., Des Plaines, Ill.). One milliliter samples of plasma or whole blood were analyzed for technetium-99m, and samples were counted for 1 minute. As determined by the computer, the curve in FIG. 2 and the five other corresponding curves (not shown) from the other tests with the dogs were the best fitting curves passing through the plots of experimentally measured radioactivities.

[3] = Scintiscan (Anger camera) monitoring of distribution of radioactivity after intravenous administration, female beagle dog; format: in vivo; set-up: key: -: no significant measured radioactivity; relative amounts of measured radioactivity ranging from (-) for no significant measured radioactivity to (+++) for the maximum measured radioactivity; relative amounts of measured radioactivity ranging from (-) for no significant measured radioactivity to (+++) for the maximum measured radioactivity; +++: the maximum measured radioactivity; conditions: i.v., 7.3 mg, 0.84 mCi
Protocol: (§1) This procedure used with the rabbits was repeated with additional anesthetized animals: two female beagle dogs and two female rhesus monkeys. In these cases, however, unlike the cases of the rabbits, the complex solutions, again prepared generally as described in Examples 1 and 2, were injected intravenously in a saphenous vein of the dogs and monkeys.
Three milliliters of a solution of the complex formed from technetium-99m and 9.4 milligrams of fructose 1,6-diphosphate and having a radioactivity of 0.5 mCi were administered to one such dog weighing 11.7 kilograms. In addition, 1.6 milliliters of a solution of the complex formed from technetium-99m and 7.3 milligrams of fructose 6-phosphate having a radioactivity of 0.84 mCi were administered to a second such dog weighing 10.5 kilograms.
(§2) At various times after the aforesaid administrations of solutions of complexes of this invention, which times are indicated in Tables 1-6, scintiscan photographs and video tape recordings were taken of the aforesaid rabbit, beagles and monkeys using the Anger camera. This instrument was a Pho-Gamma LFOV Scintillation Camera System, Model 6413, fitted with a Model 3137 Vari-Back Camera, a Model 3122 Data-Store/Playback System and a Model 27851 Analog-Digital/Digital-AnalogConverter (all Searle Radiographics, Inc.). This entire system was interfaced with a Xerox 530 computer (Xerox Corp., Minneapolis, Minn.) which was programmed to record net counts per unit of time and percents of total counts in individual organs and to plot organ radioactivity versus time. The camera was operated with a 140 KeV high resolution Type II converging collimator using a 20 percent technetium-99m window. Generally 400,000 counts were accumulated on each scintiscan using both video tape and self-developing film, with the animal in the full ventral position. The photographs represented a visualization of the anatomic relationships in the kidneys.
(§3) Tables 1-6 contain semi-quantitative representations of the distribution of radioactivity in the organs of the test animals determined from the scintiscans. In Tables 1-6, (--), (+), (++) and (+++) indicate relative amounts of measured radioactivity ranging from (-) for no significant measured radioactivity to (+++) for the maximum measured radioactivity.

[4] = Scintiscan (Anger camera) monitoring of distribution of radioactivity after intravenous administration, rhesus monkey; format: in vivo; set-up: key: -: no significant measured radioactivity; relative amounts of measured radioactivity ranging from (-) for no significant measured radioactivity to (+++) for the maximum measured radioactivity; relative amounts of measured radioactivity ranging from (-) for no significant measured radioactivity to (+++) for the maximum measured radioactivity; +++: the maximum measured radioactivity; conditions: i.v., 7.6 mg, 0.79 mCi
Protocol: as §1
Similarly 0.3 milliliter of a solution of the complex formed from technetium-99m and 1.1 milligrams of fructose 1,6-diphosphate having a radioactivity of 1.2 mCi were administered to one such monkey weighing 5.1 kilograms. Also 1.5 milliliters of a solution of the complex formed from technetium-99m and 7.6 milligrams of fructose 6-phosphate having a radioactivity of 0.79 mCi were administered to a second such monkey weighing 6.7 kilograms.
as §2, §3

[5] = Scintiscan (Anger camera) monitoring of distribution of radioactivity after intravenous administration, rabbit; format: in vivo, New Zealand rabbit; set-up: key: -: no significant measured radioactivity; relative amounts of measured radioactivity ranging from (-) for no significant measured radioactivity to (+++) for the maximum measured radioactivity; relative amounts of measured radioactivity ranging from (-) for no significant measured radioactivity to (+++) for the maximum measured radioactivity; +++: the maximum measured radioactivity; conditions: i.v., 1.21 mg, 0.81 mCi
Protocol: Approximately 0.2 milliliter of a solution of the complex formed from technetium-99m and 0.95 milligram of fructose 1,6-diphosphate and prepared generally as described in Example 1 and having a radioactivity of 0.5 millicurie was administered intravenously to an anesthetized New Zealand rabbit weighing about 3 kilograms. Approximately the same volume of a solution of the complex formed from technetium-99m and 1.21 milligrams of fructose 6-phosphate prepared generally as described in Example 2, having a radioactivity of 0.81 millicurie was similarly administered to a second New Zealand rabbit of about the same weight. The injections were made using a 1 milliliter tuberculin syringe connected to a #23 gauge indwelling cannula inserted into a marginal ear vein. Each rabbit was positioned in a full ventral position for 2.5 to 3 hours during which time the disposition of the radioactivity in the rabbit in this position was monitored using a computer-augmented Anger camera. The measurements and results are discussed hereinafter, and the results of the test using the fructose 1,6-diphosphate and fructose 6-phosphate complexes are presented in Tables 1 and 2, respectively.
as §2, §3

[6] = Appearance of radioactive complex in kidneys and urinary bladder calculated from video tape measurements (FIG. 1), male mongrel dog; format: in vivo; conditions: i.v., 3-5 mg, 3.5 mCi, about 45 min
From the text: as §2
The appearance in the kidneys and urinary bladder of a male mongrel dog weighing 14.1 kilograms, of the radioactive complex formed from technetium-99m and 3-5 milligrams of fructose 6-phosphate administered intravenously as described above in a 0.5-1.0 milliliter solution prepared as in Example 2 and having a radioactivity of 3.5 mCi, was calculated from video tape measurements by the computer and is plotted in FIG. 1 as the percentage of total radioactivity administered in the form of the radioactive complex versus time after administration. At about 45 minutes after administration, about 60 percent of the total radioactivity administered was concentrated in the urinary bladder, with less than 7 percent of the total dose of the radioactive complex in the kidneys.

O=C(O)CNC(=O)c1ccccc1[131I] [131I-o-iodohippurate]
route of excretion ([1]; after intravenous injection): excreted through the kidneys exclusively
clearance model ([1]; in vivo): appears to follow the two-compartment model

complex of technetium-99m and fructose 6-phosphate
improved average half time, distributive phase ([2]; single obviously erroneous measurement eliminated, standard deviation 0.025 hour): 0.072 h
improved average half time, elimination phase ([2]; single obviously erroneous measurement eliminated, standard deviation 0.72 hour): 1.68 h
average half time, distributive phase ([2]; standard deviation 0.023 hour): 0.088 h
average half time, elimination phase ([2]; standard deviation 3.29 hours): 3.98 h
Relative distribution of complex: Kidneys ([3]; 1 min): ++
Relative distribution of complex: Urinary Bladder ([3]; 1 min): -
Relative distribution of complex: Vascular ([3]; 1 min): ++
Relative distribution of complex: Kidneys ([3]; 6 min): ++
Relative distribution of complex: Urinary Bladder ([3]; 6 min): +
Relative distribution of complex: Vascular ([3]; 6 min): +
Relative distribution of complex: Kidneys ([3]; 25 min): +
Relative distribution of complex: Urinary Bladder ([3]; 25 min): ++
Relative distribution of complex: Vascular ([3]; 25 min): +
Relative distribution of complex: Kidneys ([3]; 30 min): +
Relative distribution of complex: Urinary Bladder ([3]; 30 min): +++
Relative distribution of complex: Vascular ([3]; 30 min): +
Relative distribution of complex: Kidneys ([3]; 40 min): +
Relative distribution of complex: Urinary Bladder ([3]; 40 min): +++
Relative distribution of complex: Vascular ([3]; 40 min): -
Relative distribution of complex: Kidneys ([3]; 50 min): +
Relative distribution of complex: Urinary Bladder ([3]; 50 min): +++
Relative distribution of complex: Vascular ([3]; 50 min): -
Relative distribution of complex: Kidneys ([3]; 60 min): +
Relative distribution of complex: Urinary Bladder ([3]; 60 min): +++
Relative distribution of complex: Vascular ([3]; 60 min): -
Relative distribution of complex: Kidneys ([3]; 70 min): +
Relative distribution of complex: Urinary Bladder ([3]; 70 min): +++
Relative distribution of complex: Vascular ([3]; 70 min): -
Relative distribution of complex: Kidneys ([3]; 80 min): +
Relative distribution of complex: Urinary Bladder ([3]; 80 min): +++
Relative distribution of complex: Vascular ([3]; 80 min): -
Relative distribution of complex: Kidneys ([3]; 90 min): +
Relative distribution of complex: Urinary Bladder ([3]; 90 min): +++
Relative distribution of complex: Vascular ([3]; 90 min): -
Relative distribution of complex: Kidneys ([4]; 4 min): ++
Relative distribution of complex: Urinary Bladder ([4]; 4 min): +++
Relative distribution of complex: Vascular ([4]; 4 min): +
Relative distribution of complex: Kidneys ([4]; 30 min): ++
Relative distribution of complex: Urinary Bladder ([4]; 30 min): +++
Relative distribution of complex: Vascular ([4]; 30 min): +
Relative distribution of complex: Kidneys ([4]; 50 min): +
Relative distribution of complex: Urinary Bladder ([4]; 50 min): +++
Relative distribution of complex: Vascular ([4]; 50 min): -
Relative distribution of complex: Kidneys ([4]; 65 min): +
Relative distribution of complex: Urinary Bladder ([4]; 65 min): +++
Relative distribution of complex: Vascular ([4]; 65 min): -
Relative distribution of complex: Kidneys ([5]; 1 min): ++
Relative distribution of complex: Urinary Bladder ([5]; 1 min): +
Relative distribution of complex: Vascular ([5]; 1 min): ++
Relative distribution of complex: Kidneys ([5]; 30 min): ++
Relative distribution of complex: Urinary Bladder ([5]; 30 min): ++
Relative distribution of complex: Vascular ([5]; 30 min): +
Relative distribution of complex: Kidneys ([5]; 60 min): ++
Relative distribution of complex: Urinary Bladder ([5]; 60 min): +++
Relative distribution of complex: Vascular ([5]; 60 min): +
Relative distribution of complex: Kidneys ([5]; 120 min): +
Relative distribution of complex: Urinary Bladder ([5]; 120 min): +++
Relative distribution of complex: Vascular ([5]; 120 min): -
Relative distribution of complex: Kidneys ([5]; 150 min): +
Relative distribution of complex: Urinary Bladder ([5]; 150 min): +++
Relative distribution of complex: Vascular ([5]; 150 min): -
percentage of total dose of the radioactive complex in the kidneys [6]: less than 7%
percentage of total radioactivity administered concentrated in the urinary bladder [6]: about 60%
radioactivity concentrated in any other organ [6]: No measurable radioactivity
